# Source: patent publication US20050220900A1, “Use of extracts containing phytoestrogen selectively modulating estrogen-receptor-beta” (priority 2002, published 2005)
# Columns and labels:
# [1] = system: human granulosa/luteal cells; assay: progesterone secretion of human granulosa/luteal cells; format: cell-based; conditions: 5-hour incubation, 1 μM
# Source text: Luteal cell cultures are an established test method for the paracrine effect of steroids. Such cells are not available from humans, since all surgical procedures in which biopsies can be taken are always performed at the follicular phase to avoid the risk of an undetected pregnancy. However, these granulosa/luteal cells become available in the course of in vitro fertilization programs and are maintained in culture, and they behave very much like luteal cells in terms of receptor population and secretory function. An estrogenic effect of vitex agnus castus was tested with this human in vitro testing system. […] FIG. 5: […] The * indicates a significant deviation from the (culture) medium control. FIG. 6 summarizes the effect of vitex agnus castus extracts upon progesterone secretion under this testing system after a 5-hour incubation.
# [2] = system: porcine luteal cells; assay: progesterone secretion of porcine luteal cells; format: cell-based; conditions: anti-estrogen alone
# Method: To reinforce this conclusion, the cells were incubated with vitex agnus castus extract along with the anti-estrogen tamoxifen.
Compound,effect on progesterone secretion [1],"effect on progesterone excretion, tamoxifen alone [2]"
"C[C@]12CC[C@@H]3c4ccc(O)cc4CC[C@H]3[C@@H]1CC[C@H]2O [17-alpha estradiol, estradiol 17-alpha]",no effect,
CC/C(=C(\c1ccccc1)c1ccc(OCCN(C)C)cc1)c1ccccc1 [tamoxifen],,without effect
